Among the data in patent US7528123B1, “Estrogenic estra-1,3,5(10)-trienes with differential effects on the alpha and beta estrogen receptors, having a linear hydrocarbon chain of from 5-9 carbon atoms in position 11” (N.V. Organon, priority 1998, dated 2009) are ER-α and ER-β values, retold here.

In experiment [1] the target is T1, human estrogen receptor α (Homo sapiens, UniProt P03372).
T1 construct: expressed in transfected cells; host or cells: CHO cells (CHO-ERRO 2B1-1E9), stably co-transfected with rat oxytocin promoter-luciferase reporter
T1 sequence (P03372 1-595): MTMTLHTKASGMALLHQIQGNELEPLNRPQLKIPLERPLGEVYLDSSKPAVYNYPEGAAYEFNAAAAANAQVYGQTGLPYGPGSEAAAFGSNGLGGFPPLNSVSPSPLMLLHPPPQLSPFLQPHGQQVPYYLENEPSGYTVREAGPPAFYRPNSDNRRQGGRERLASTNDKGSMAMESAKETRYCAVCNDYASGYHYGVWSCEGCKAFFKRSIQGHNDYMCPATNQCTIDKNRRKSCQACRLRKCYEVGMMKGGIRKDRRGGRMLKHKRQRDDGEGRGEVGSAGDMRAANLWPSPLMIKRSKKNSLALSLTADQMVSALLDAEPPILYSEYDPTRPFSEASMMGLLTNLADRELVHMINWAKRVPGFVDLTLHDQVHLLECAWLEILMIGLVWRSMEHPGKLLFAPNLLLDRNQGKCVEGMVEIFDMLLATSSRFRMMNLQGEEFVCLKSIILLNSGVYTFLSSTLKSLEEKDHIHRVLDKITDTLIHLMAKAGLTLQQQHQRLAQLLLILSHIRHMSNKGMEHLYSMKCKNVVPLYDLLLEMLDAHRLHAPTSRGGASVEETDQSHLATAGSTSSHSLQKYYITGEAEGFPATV
Nature of the experiment: CHO-ERα bioassay: luciferase transactivation, estrogenic and anti-estrogenic activity. The experiment is classed as cell-based. The note with it: agonist or antagonist in recombinant CHO cells with hERα, rat oxytocin promoter, luciferase reporter; standard Org 2317 (estradiol). How it is done:
(§1) Test medium: Intact recombinant CHO cells stably co-transfected with the rat oxytocin promoter and the luciferase reporter gene and either the human estrogen receptor β or the human estrogen receptor α. Both cell lines have been produced within the Department of Biotechnology and Biochemistry (BBC) (N. V. Organon) and are known under the name CHO-ERRO 2B1-1E9 for CHO-ERα and CHO-ERβ RO LUC for CHO-ERβ. The estrogenic activity of compounds is determined in an in vitro bioassay (CHO-ERα) with recombinant Chinese hamster ovary (CHO) cells stably co-transfected with the human estrogen α (hERα), the rat oxytocin promoter (RO) and the luciferase reporter gene (LUC). The estrogenic activity (potency ratio) of a test compound to promote the transactivation of the enzyme luciferase mediated via the estrogen receptor α is compared with the standard estrogen Org 2317 (estradiol 1,3,5 (10)-estratriene-3,17β-diol). The estrogenic activity (potency ratio) of a test compound to promote the transactivation of the enzyme luciferase mediated via the estrogen receptor β is determined in the same fashion but using recombinant Chinese hamster ovary (CHO) cells stably co-transfected with the human estrogen β (hERβ) (bioassay CHO-ERβ). The anti-estrogenic activity of compounds is determined in the same bioassays (CHO-ERα and CHO-ERβ), but now the anti-ERα and anti-ERβ activity (potency ratio) of a test compound to inhibit the transactivation of the enzyme luciferase mediated via ERα or ERβ by Org 2317 (estradiol 1,3,5 (10)-estratriene-3,17β-diol) is measured.

For experiment [2], the target named is T2, human estrogen receptor β (Homo sapiens, UniProt Q92731).
T2 construct: expressed in transfected cells; host or cells: CHO cells (CHO-ERβ RO LUC), stably co-transfected with rat oxytocin promoter-luciferase reporter
Nature of the experiment: CHO-ERβ bioassay: luciferase transactivation, estrogenic and anti-estrogenic activity. The experiment is classed as cell-based. To be noted: agonist or antagonist in recombinant CHO cells with hERβ, rat oxytocin promoter, luciferase reporter; standard Org 2317 (estradiol). How it is done:
as §1

T2 sequence (Q92731 whole entry): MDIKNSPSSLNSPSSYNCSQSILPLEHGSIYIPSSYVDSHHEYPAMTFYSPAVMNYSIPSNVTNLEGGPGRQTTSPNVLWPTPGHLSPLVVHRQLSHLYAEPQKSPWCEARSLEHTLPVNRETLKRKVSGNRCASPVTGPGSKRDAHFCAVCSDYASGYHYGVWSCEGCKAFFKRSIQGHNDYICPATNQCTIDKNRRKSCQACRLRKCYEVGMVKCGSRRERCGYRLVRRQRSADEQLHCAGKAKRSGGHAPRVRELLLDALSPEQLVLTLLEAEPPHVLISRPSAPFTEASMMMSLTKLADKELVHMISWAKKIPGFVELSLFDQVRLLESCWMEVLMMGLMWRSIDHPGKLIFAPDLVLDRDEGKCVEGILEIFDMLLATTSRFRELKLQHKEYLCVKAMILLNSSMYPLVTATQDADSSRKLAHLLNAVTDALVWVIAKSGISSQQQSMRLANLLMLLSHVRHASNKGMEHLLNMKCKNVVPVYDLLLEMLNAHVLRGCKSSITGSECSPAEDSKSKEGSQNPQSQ

As to `C[C@]12C[C@H](CC=C3CC3)[C@@H]3c4ccc(O)cc4CC[C@H]3[C@@H]1CC[C@@H]2O` [Compound 7], in experiment [1], the ER-α entry is on record as “agonist”. The ER-β result in experiment [2] is “agonist”.

Take `C#CCC[C@H]1C[C@]2(C)[C@@H](O)CC[C@H]2[C@@H]2CCc3cc(O)ccc3[C@@H]12` [Compound 4]: the ER-α entry in experiment [1] is given as “agonist”. Besides, in experiment [2], the ER-β entry was “agonist”.

As to `CC#CCC[C@H]1C[C@]2(C)[C@@H](O)CC[C@H]2[C@@H]2CCc3cc(O)ccc3C12` (stereo partly shown) [Compound 5], in experiment [1], the ER-α entry was “agonist”. Moreover, the ER-β result in experiment [2] is “antagonist”.

As for `C[C@]12C[C@H](CCC=C3CC3)[C@@H]3c4ccc(O)cc4CC[C@H]3[C@@H]1CC[C@@H]2O` [Compound 8], in experiment [1], the ER-α result was “agonist”. Further, the ER-β result in experiment [2] was “antagonist”.

Regarding `C=CC[C@H]1C[C@]2(C)[C@@H](O)CC[C@H]2[C@@H]2CCc3cc(O)ccc3[C@@H]12` [Compound 1], the ER-α entry in experiment [1] is “agonist”. In experiment [2], the ER-β result is recorded as “agonist”.

On to `CCCCC[C@H]1C[C@]2(C)[C@@H](O)CC[C@H]2[C@@H]2CCc3cc(O)ccc3[C@@H]12` [Compound 11], for which the ER-α result in experiment [1] was “agonist”. The ER-β entry in experiment [2] is reported as “antagonist”.

Regarding `C=CCC[C@H]1C[C@]2(C)[C@@H](O)CC[C@H]2[C@@H]2CCc3cc(O)ccc3[C@@H]12` [Compound 2], the ER-α entry in experiment [1] is reported as “agonist”. Moreover, the ER-β result in experiment [2] is “agonist”.

In the case of `C#CCCC[C@H]1C[C@]2(C)[C@@H](O)CC[C@H]2[C@@H]2CCc3cc(O)ccc3[C@@H]12` [Compound 6], in experiment [1], the ER-α entry was “agonist”. The ER-β entry in experiment [2] is on record as “antagonist”.

As to `CCC[C@H]1C[C@]2(C)[C@@H](O)CC[C@H]2[C@@H]2CCc3cc(O)ccc3[C@@H]12` [Compound 9], the ER-α result in experiment [1] is listed as “agonist”. In experiment [2], the ER-β result was “agonist”.

Turning to `CCCC[C@H]1C[C@]2(C)[C@@H](O)CC[C@H]2[C@@H]2CCc3cc(O)ccc3[C@@H]12` [Compound 10], the ER-α result in experiment [1] is given as “agonist”. Besides, in experiment [2], the ER-β result is recorded as “agonist”.

In the case of `C=CCCC[C@H]1C[C@]2(C)[C@@H](O)CC[C@H]2[C@@H]2CCc3cc(O)ccc3[C@@H]12` [Compound 3], the ER-α result in experiment [1] is reported as “agonist”. Also, in experiment [2], the ER-β result was “antagonist”.
